Key:
Format in all cases: cell-based, human
[1] = test system: A431 cells; assay: UniGEM V cDNA array expression profile of A431 cells; settings: 3 μM, 24 hours, RNA from Experiment 1
Experimental: The following tissue culture cells are chosen because of their EGFR expression status (Table 1). EGFR expression is measured by Western blotting, using anti-EGFR monoclonal antibodies from Transduction Labs (Lexington, Ky.). The cell lines are obtained from the ATCC (Rockville, […].). The cells are cultured in 5% CO2 at 37° C.
(§1) 20 million tissue culture cells (about 80% confluent) or 200 million WBCs are incubated for 2 or 24 h in culture medium containing 3 μM of an EGFR tyrosine kinase inhibitor or 0.03% DMSO. Total RNA from cell pellet is isolated using the RNeasy kit (Qiagen). mRNA is isolated using the oligotex mRNA purification kit (Qiagen). The quality of the obtained mRNA is tested by real time RT-PCR using beta-Actin primers (PE Applied Biosystems) with an amplicon size of 300 base pairs (bp). The total RNA is used as a reference to calculate the amount of mRNA-enrichment in the oligotex purified samples.
(§2) Probes for the UniGEM hybridization are synthesized by Incyte Genomics (Palo Alto, Calif., USA). For each probe 200 ng mRNA (50 ng/μl) is shipped in dry ice. The results are analyzed using the Expressionist Software Package provided by GeneData.
(§3) Expression profiles (UniGEM V arrays) of 4 tumor cell lines with different EGFR expression status (A431, NCI-H596, NCI-H520 and MDA-MB-468) and of WBCs upon exposure of cells to 3 μM of COMPOUND A for 2 or 24 h are analyzed. As control, cells treated with DMSO for the same time period are used. […] The cDNA array hybridization is repeated with the UniGEM 1 array using the same mRNA (Table 3).

[2] = test system: MDA-MB468; assay: Western blot of clusterin induction in MDA-MB468 cells; settings: MDA-MB468 cells (high levels of EGFR), 300 nM, 24 h, vs 0.03% DMSO
Experimental: (§4) An EGFR tyrosine kinase inhibitor is dissolved in DMSO to obtain a 10 mM stock solution. The stock solution is further diluted in culture medium to final concentrations of 10 nM to 3 μM. 3.5 million cells/100 mm dish/12 ml culture medium are incubated for 24 h in 5% CO2 at 37° C. The medium is replaced with medium containing the EGFR tyrosine kinase inhibitor or DMSO. Cells are incubated for 4 to 32 h. The frozen pellets are lysed in 500 μl of lysis buffer (50 mM Tris-HCl pH 7.5, 1% Sodium Dodecyl Sulfate (SDS)). To shear genomic DNA, the cell lysates are processed in a FastPrep instrument for 20 sec at a speed rating of 4, using the green […] tubes (Bio101#6040-6010). Protein concentrations are determined according to the PIERCE-method (BCA Protein Assay, Reagent A and B). Protein concentration of lysates is adjusted to 1 μg/μl with lysis buffer. 4 parts of cell lysates are mixed with 1 part of 5 fold concentrated Laemmli buffer, the lysates are stored at -20° C. 40 μl of cell lysate is heated for 3 min to 95° C. and directly loaded on to 10% or 15% SDS-PAGE gels. The gels are run at 130 V for 90 min under standard conditions. The separated proteins are semi-dry blotted on to a PVDF membrane (Immobilon-P, Millipore #IPVH 202 00) for 70 min with 45 mA per blot. […]

[3] = test system: NCI-H520; assay: Western blot of clusterin induction in NCI-H520 cells; settings: NCI-H520 cells (do not express EGFR), 300 nM, 24 h, vs 0.03% DMSO
Experimental: as §4

[4] = test system: A431, NCI-H596, NCI-H520, MDA-MB-468 and WBCs; assay: UniGEM V array 2 h expression profiles of 4 tumor cell lines and WBCs; settings: 3 μM, cut off set at 3, vs DMSO, data not shown
Experimental: as §1, §2, §3

SMILES: C[C@@H](Nc1ncnc2[nH]c(-c3ccc(O)cc3)cc12)c1ccccc1 [COMPOUND A, (R)-6-(4-hydroxy-phenyl)-4-[(1-phenyl-ethyl)-amino]-7H-pyrrolo[2,3-d]pyrimidine]
- Gene induction, Micro Array UniGEM V: Acute phase serum amyloid A protein [1]: 3.3
- Gene induction, Micro Array UniGEM V: Cathepsin H [1]: 2.4
- Gene induction, Micro Array UniGEM V: Complement component 3 (C3) [1]: 3.3
- Gene induction, Micro Array UniGEM V: Complement cytolysis inibitor (Clusterin) [1]: 6.6
- Gene induction, Micro Array UniGEM V: DNA binding protein inhibitor ID-3 [1]: 2.6
- Gene induction, Micro Array UniGEM V: Extracellular protein S1-5 [1]: 2.2
- Gene induction, Micro Array UniGEM V: TGF-beta induced gene [1]: 2.7
- Gene induction, Micro Array UniGEM V: TRAIL [1]: 4.0
- Gene induction, Micro Array UniGEM V: VAC-beta (annexin VIII) [1]: 2.2
- Clusterin induction, Western blot (FIG. 4) [2]: strong clusterin expression signals
- Clusterin induction, Western blot (FIG. 4) [3]: no detectable clusterin levels
- 2 h expression profiles, induced and repressed genes [4]: almost no induced genes and only few repressed genes
- 2 h expression profiles: early growth response protein 1 [4]: repression in two cell lines and WBCs
